Patent US20090148398A1, “Naturally Occurring Volatile Attractant” (priority 2007, published 2009)
Entries after “also recorded” stand apart in the source; their conditions may differ.

Legend:
[1] = test system: fire ant workers; test: Fire ant alarm response; parameters: species or system Solenopsis invicta; conditions: in vivo
Description: Recently, the identity of a component of the fire ant alarm pheromone was determined to be 2-ethyl, 3,6-dimethyl pyrazine and the origin is the mandibular gland. […] In addition, 2-ethyl, 3,6-dimethyl pyrazine is commercially available as a mixture with the related compound, 2-ethyl, 3,5-dimethyl pyrazine.

[2] = test system: S. invicta workers; test: Y-tube olfactometer attraction bioassay; parameters: species or system Solenopsis invicta; conditions: in vivo
Description: All ants used in these experiments were obtained from mature, queenright, monogyne Solenopsis invicta colonies excavated from a known monogyne site in Gainesville, Fla. The colonies were separated from the dirt and set up in the laboratory at least one month prior to the experiments. Laboratory colonies were maintained on a diet of crickets, water and 10% sucrose, and kept in plastic trays (83×53×13 cm) whose inner sides were painted with poly tetrafluoroethylene compositions (ADI Fluon, ICI Americas, Bayonne, NF) to prevent, escape of the ants. Based on the above, the attraction of S. invicta workers to various concentrations of the commercially available mixture of 2-ethyl, 3,5-dimethyl pyrazine and 2-ethyl, 3,6-dimethyl pyrazine was evaluated using a Y-tube olfactometer (FIG. 5). The olfactometer is composed of two 24/40 ground glass joints 14 each ring sealed to one of the arms 24 of an approximately 5 cm Y-tube 26 such that about 1 cm of each Y-tube extends through the male half of one of the ground glass joints. An approximately 5 cm piece of about 0.6 cm tubing is ring sealed about 1 cm into the female half of the ground glass joints. […] The number of ants entering the chamber with either the control or the treatment during the 3 min were counted and recorded. […]

SMILES | alarm response of fire ant workers [1] | attraction of fire ant workers (conclusion of olfactometer experiment) [2]
CCc1ncc(C)nc1C [2-ethyl, 3,5-dimethyl pyrazine] | elicit an alarm response | 
CCc1nc(C)cnc1C [2-ethyl, 3,6-dimethyl pyrazine] | elicited the full range of previously reported fire ant alarm behaviors; also recorded: fire ant workers responded better | attracts fire ant workers through space
